# Test results taken from patent publication US11214803B2, “Modulators of YAP1 expression” (Ionis Pharmaceuticals, Inc., priority 2019, dated 2022).
# Strand notation (5' to 3'): a small letter for the sugar, then the base; units joined by * are phosphorothioate-linked, units joined directly phosphodiester-linked; [ ] holds rarer units or linkages, { } end groups; capitals alone tell only the bases. k = constrained ethyl (cEt); [5mC] = 5-methylcytosine; d = 2'-deoxy (DNA)
# System: Yap1 mRNA
# Test: Antisense inhibition of human Yap1 in A-431 cells by cEt gapmers, single dose (Example 3, RTS36584)
# Type: cell-based
# Conditions: Table 8; A-431 cells, 5,000 cells per well, free uptake, 2,000 nM, approximately 48 hours; RTS36584; normalized to RIBOGREEN; Yap1 mRNA relative to untreated control cells
# In short: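 Read-out is Yap1 mRNA as percent of untreated control, by quantitative RT-PCR normalized to total RNA (RiboGreen). Cells (A-431) received 2,000 nM of 3-10-3 cEt phosphorothioate gapmer via free uptake for roughly 48 hours.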
row,Substance,YAP1 (% UTC)
1,958351 (kT*k[5mC]*kT*d[5mC]*d[5mC]*dG*dA*dG*dT*d[5mC]*d[5mC]*d[5mC]*d[5mC]*kG*k[5mC]*kG; antisense) [Compound 958351],67
2,958372 (antisense kG*kG*kT*dG*d[5mC]*dT*dA*dG*d[5mC]*dT*dG*dG*dT*kG*k[5mC]*k[5mC]) [Compound 958372],49
3,958371 (antisense kA*k[5mC]*k[5mC]*dA*dA*d[5mC]*dT*dA*dT*dT*dA*d[5mC]*dT*kT*k[5mC]*kA) [Compound 958371],2
4,958422 (antisense kT*kT*kT*d[5mC]*dT*dT*dA*dA*d[5mC]*d[5mC]*dA*dG*d[5mC]*kG*kG*kA) [Compound 958422],15

# Same assay, conditions: Table 9; A-431 cells, 5,000 cells per well, free uptake, 2,000 nM, approximately 48 hours; RTS36584; normalized to RIBOGREEN; Yap1 mRNA relative to untreated control cells
row,Substance,YAP1 (% UTC)
1,958451 (antisense k[5mC]*kA*k[5mC]*dG*dA*dT*d[5mC]*dT*dG*dA*dT*dG*d[5mC]*k[5mC]*k[5mC]*kG) [Compound 958451],10
2,958466 (antisense kG*kT*k[5mC]*dA*dT*dT*dA*dA*dG*dG*dA*dT*dG*kT*k[5mC]*kA) [Compound 958466],9
3,958716 (antisense kA*kT*kG*dG*dA*d[5mC]*dT*dG*dT*dA*dT*dG*d[5mC]*kA*kG*k[5mC]) [Compound 958716],84

# Same assay, conditions: Table 10; A-431 cells, 5,000 cells per well, free uptake, 2,000 nM oligonucleotide, approx. 48 hours; primer probe set RTS36584; Yap1 mRNA normalized to RIBOGREEN, percent of untreated control
row,Substance,YAP1 (% UTC)
1,958682 (k[5mC]*k[5mC]*kA*dT*dG*dA*dG*dG*dG*dA*d[5mC]*dT*d[5mC]*k[5mC]*k[5mC]*kA; antisense) [Compound 958682],123
2,958557 (k[5mC]*kA*k[5mC]*dA*dA*d[5mC]*d[5mC]*dA*dA*d[5mC]*dT*dA*dT*kT*kA*k[5mC]; antisense) [Compound 958557],10
3,958747 (antisense kG*kT*kA*dA*dA*dG*dA*dG*dG*dG*dT*dG*dA*k[5mC]*kA*kT) [Compound 958747],106
4,958727 (antisense kA*kT*k[5mC]*dT*dG*dT*d[5mC]*dA*dG*dT*dT*dA*dT*k[5mC]*k[5mC]*kT) [Compound 958727],2

# Same assay, conditions: Table 11; A-431 cells, 5,000 cells per well, free uptake, 2,000 nM oligonucleotide, approx. 48 hours; primer probe set RTS36584; Yap1 mRNA normalized to RIBOGREEN, percent of untreated control
row,Substance,YAP1 (% UTC)
1,958688 (antisense kG*kG*k[5mC]*dT*dA*dT*dG*dT*dA*dG*d[5mC]*d[5mC]*dT*kT*k[5mC]*k[5mC]) [Compound 958688],82
2,958668 (kG*kT*kG*dA*dT*d[5mC]*dT*dG*dT*dG*dA*dG*dA*kG*kG*kT; antisense) [Compound 958668],2
3,958453 (antisense kG*k[5mC]*k[5mC]*dT*d[5mC]*dA*dT*dG*dG*dG*d[5mC]*dA*d[5mC]*kG*kG*kT) [Compound 958453],70
4,958633 (antisense kT*kG*kT*d[5mC]*dA*dT*d[5mC]*dA*dG*dG*dT*dT*dA*kA*kG*kT) [Compound 958633],76

# Same assay, conditions: Table 12; A-431 cells, 5,000 cells per well, free uptake, 2,000 nM modified oligonucleotide, approx. 48 hours; RTS36584; normalized to RIBOGREEN; Yap1 mRNA relative to untreated control cells
row,Substance,YAP1 (% UTC)
1,958639 (antisense kG*kT*kT*dA*dT*dG*dG*dG*dT*dG*d[5mC]*dT*dT*kT*kT*k[5mC]) [Compound 958639],18
2,958779 (antisense kT*k[5mC]*kG*dA*dA*dT*dA*dT*dA*dG*dA*dG*dG*k[5mC]*k[5mC]*kT) [Compound 958779],80
3,958819 (kT*kG*k[5mC]*dT*dT*d[5mC]*dA*dA*d[5mC]*dA*dT*dT*dG*kT*kT*k[5mC]; antisense) [Compound 958819],9
4,958574 (k[5mC]*kT*kG*dG*d[5mC]*dA*dA*dA*dT*dT*dA*dT*dA*kG*kG*k[5mC]; antisense) [Compound 958574],13
5,958754 (antisense k[5mC]*k[5mC]*kT*dT*dA*dG*dG*dA*dA*dG*dG*d[5mC]*dT*k[5mC]*k[5mC]*k[5mC]) [Compound 958754],31
6,958684 (kG*k[5mC]*kT*dG*dA*dA*dG*dA*d[5mC]*dG*dG*d[5mC]*d[5mC]*k[5mC]*kT*kT; antisense) [Compound 958684],70

# Same assay, conditions: Table 13; A-431 cells, 5,000 cells per well, free uptake, 2,000 nM modified oligonucleotide, approx. 48 hours; RTS36584; normalized to RIBOGREEN; Yap1 mRNA relative to untreated control cells
row,Substance,YAP1 (% UTC)
1,958670 (kG*kG*kT*d[5mC]*dT*dT*dG*dG*dT*dG*dA*dT*dT*kG*kG*k[5mC]; antisense) [Compound 958670],20
2,958725 (antisense kG*kT*k[5mC]*dA*dG*dT*dT*dA*dT*d[5mC]*d[5mC]*dT*dA*kT*k[5mC]*k[5mC]) [Compound 958725],1

# Same assay, conditions: Table 26; Yap1 mRNA by 3-10-3 cEt gapmers targeting SEQ ID NO.: 1, and 2; percent of untreated control
row,Substance,YAP1 (% UTC)
1,1075692 (kT*kA*kA*dG*dA*dA*d[5mC]*dA*d[5mC]*d[5mC]*dA*dT*dA*kG*k[5mC]*kA; antisense) [compound 1075692],11
2,1074124 (kG*kG*k[5mC]*dT*dG*d[5mC]*dG*dA*dG*dG*d[5mC]*dA*d[5mC]*kT*k[5mC]*kG; antisense) [compound 1074124],94
3,1075148 (k[5mC]*kG*kG*dA*dA*dA*dA*dA*dA*d[5mC]*dA*d[5mC]*d[5mC]*kT*kA*kG; antisense) [compound 1075148],66

# Same assay, conditions: Table 27; Yap1 mRNA by 3-10-3 cEt gapmers targeting SEQ ID NO.: 1, and 2; percent of untreated control
row,Substance,YAP1 (% UTC)
1,1076429 (k[5mC]*kA*kT*dT*dA*d[5mC]*dA*dA*dG*d[5mC]*dA*dT*dA*kG*kG*k[5mC]; antisense) [compound 1076429],26
2,1075853 (kG*kA*kG*d[5mC]*dG*dA*dT*dA*dA*dG*d[5mC]*dT*dG*kT*kA*kT; antisense) [compound 1075853],72
3,1076557 (kA*kA*k[5mC]*dA*dA*dA*dT*dA*d[5mC]*d[5mC]*dA*dG*dG*kT*kT*k[5mC]; antisense) [compound 1076557],111
4,1075949 (antisense kT*kA*kG*dG*dA*dA*d[5mC]*dA*d[5mC]*d[5mC]*dA*dA*dG*kG*kT*kT) [compound 1075949],48

# Same assay, conditions: Table 28; Yap1 mRNA as percent of untreated control; 3-10-3 cEt gapmers targeting SEQ ID NO.: 1, and 2
row,Substance,YAP1 (% UTC)
1,1075214 (kA*kA*k[5mC]*dA*dA*dT*dA*dA*dA*dG*dG*dG*dT*k[5mC]*k[5mC]*kT; antisense) [compound 1075214],45
2,1076302 (kA*kA*kT*dA*dA*dG*d[5mC]*d[5mC]*dT*d[5mC]*dA*d[5mC]*d[5mC]*kT*kT*kT; antisense) [compound 1076302],74
3,1075950 (antisense kT*kG*kA*d[5mC]*dA*dA*dT*dA*d[5mC]*d[5mC]*dT*dT*d[5mC]*k[5mC]*kT*kA) [compound 1075950],30
4,1075438 (antisense k[5mC]*kA*kT*dA*dT*dT*dA*dG*dA*dG*dT*dT*dG*kA*kG*kG) [compound 1075438],22
5,1075598 (antisense kA*kA*kT*dT*dA*dA*d[5mC]*dA*dT*dT*dT*dG*d[5mC]*k[5mC]*k[5mC]*kG) [compound 1075598],62
6,1075054 (antisense k[5mC]*kA*kA*dT*dA*dT*dA*dT*dA*d[5mC]*dT*dT*dG*kA*kT*k[5mC]) [compound 1075054],48
7,1074350 (antisense kT*kA*kG*dT*d[5mC]*d[5mC]*dA*d[5mC]*dT*dG*dT*d[5mC]*dT*kG*kT*kA) [compound 1074350],14

# Same assay, conditions: Table 29; Yap1 mRNA as percent of untreated control; 3-10-3 cEt gapmers targeting SEQ ID NO.: 1, and 2
row,Substance,YAP1 (% UTC)
1,1076079 (kA*kA*kG*d[5mC]*dA*dA*dT*dA*dT*dA*dT*dG*dG*k[5mC]*k[5mC]*kT; antisense) [compound 1076079],37
2,1075471 (antisense kA*kG*k[5mC]*d[5mC]*dA*dA*dT*dA*dA*dG*dT*dT*dA*kT*k[5mC]*kA) [compound 1075471],55

# Same assay, conditions: Table 34; Yap1 mRNA as percent of untreated control; 3-10-3 cEt gapmers targeting SEQ ID NO: 1 and 2; single dose
row,Substance,YAP1 (% UTC)
1,1074228 (antisense kG*kA*k[5mC]*dT*dG*dT*d[5mC]*dG*dA*dA*dG*dA*dT*kG*k[5mC]*kT) [compound 1074228],17
2,1076468 (k[5mC]*kA*kT*dT*dA*d[5mC]*dT*dA*d[5mC]*dT*dA*dA*dG*kA*kG*kT; antisense) [compound 1076468],91

# Same assay, conditions: Table 35; Yap1 mRNA as percent of untreated control; 3-10-3 cEt gapmers targeting SEQ ID NO: 1 and 2; single dose
row,Substance,YAP1 (% UTC)
1,1076533 (kA*kT*kT*dT*dT*dT*dA*dG*dT*d[5mC]*d[5mC]*dA*dG*kT*kG*kG; antisense) [compound 1076533],9
2,1075733 (k[5mC]*kA*kA*dT*dA*dA*d[5mC]*d[5mC]*dT*d[5mC]*dG*dA*dG*kT*kG*k[5mC]; antisense) [compound 1075733],28
3,1075573 (antisense kA*kA*kG*dG*dA*dA*d[5mC]*d[5mC]*dT*dT*d[5mC]*dT*dG*kT*kG*kT) [compound 1075573],72
4,1075029 (antisense kA*kT*kA*dT*dT*d[5mC]*dG*dA*d[5mC]*dA*d[5mC]*dT*dG*kG*kA*kG) [compound 1075029],33
5,1074677 (antisense k[5mC]*kT*kA*d[5mC]*dT*dG*dG*d[5mC]*dA*dA*dA*dT*dT*kA*kT*kA) [compound 1074677],22
